Measured values reported in US10051857B2, “Formulation component” (SYNGENTA LIMITED, priority 2011, dated 2018).

Key:
Type in all cases: in vivo
[1] = tested on: four weed species (ABUTH, CHEAL, SETVI, XANST); test: Glasshouse adjuvant test with fomesafen (Example 3), mean across species; conditions: fomesafen 60 or 120 g/ha, adjuvant 0.2% v/v or none
Procedure: (§1) Compound No. 2 was tested in a glasshouse against four weed species in combination with the herbicide fomesafen. An agrochemical composition was prepared containing 0.2% v/v of the adjuvant in a track sprayer and was applied at a volume of 200 liters per hectare. Fomesafen was applied at either 60 or 120 grams of pesticide per hectare on weeds which had been grown to the 1.3 or 1.4 leaf stage. The weed species were Chenopodium album (CHEAL), Abutilon theophrasti (ABUTH), Setaria viridis (SETVI), and Xanthium strumarium (XANST).
(§2) Each spray test was replicated six times. The efficacy of the herbicide was assessed visually and expressed as a percentage of the leaf area killed. Samples were assessed at time periods of 7 and 14 days following application. The results shown in Table 3 below are mean averages over the two rates of fomesafen, six replicates and the two assessment timings, and are compared to the efficacy of fomesafen in the absence of adjuvant.

[2] = tested on: four weed species (AMARE, ABUTH, BRAPP, DIGSA); test: Glasshouse adjuvant test with mesotrione (Example 4), mean across species; conditions: mesotrione 60 or 120 g/ha, adjuvant 0.2% v/v
Procedure: (§3) Compound No. 2 was tested in a glasshouse against four weed species in combination with the herbicide mesotrione. An agrochemical composition was prepared containing 0.2% v/v of the adjuvant in a track sprayer and was applied at a volume of 200 liters per hectare. Mesotrione was applied at either 60 or 120 grams of pesticide per hectare on weeds which had been grown to the 1.3 or 1.4 leaf stage. The weed species were Amaranthus retroflexus (AMARE), Abutilon theophrasti (ABUTH), Brachiaria platyphylla (BRAPP), and Digitaria sanguinalis (DIGSA).
(§4) Each spray test was replicated six times. The efficacy of the herbicide was assessed visually and expressed as a percentage of the leaf area killed. Samples were assessed at time periods of 6, 14 and 21 days following application. The results shown in Table 4 below are mean averages over the two rates of mesotrione, six replicates and the three assessment timings. The results are compared to those obtained for mesotrione in combination with the commercially available tank mix adjuvant Turbocharge® D (Syngenta Crop Protection Canada, Inc.).

[3] = tested on: Xanthium strumarium (XANST); test: Glasshouse adjuvant test with fomesafen (Example 3); conditions: fomesafen 60 or 120 g/ha, adjuvant 0.2% v/v or none, 200 l/ha; leaf area killed; mean over two rates, six replicates, 7 and 14 days
Procedure: as §1, §2

[4] = tested on: Abutilon theophrasti (ABUTH); test: as above; conditions: fomesafen 60 or 120 g/ha, adjuvant 0.2% v/v or none, 200 l/ha; leaf area killed; mean over two rates, six replicates, 7 and 14 days
Procedure: as §1, §2

Setaria viridis (SETVI) = test: as above; conditions: fomesafen 60 or 120 g/ha, adjuvant 0.2% v/v or none, 200 l/ha; leaf area killed; mean over two rates, six replicates, 7 and 14 days
Procedure: as §1, §2

[5] = tested on: Chenopodium album (CHEAL); test: as above; conditions: fomesafen 60 or 120 g/ha, adjuvant 0.2% v/v or none, 200 l/ha; leaf area killed; mean over two rates, six replicates, 7 and 14 days
Procedure: as §1, §2

[6] = tested on: Digitaria sanguinalis (DIGSA); test: Glasshouse adjuvant test with mesotrione (Example 4); conditions: mesotrione 60 or 120 g/ha, adjuvant 0.2% v/v, 200 l/ha; leaf area killed; mean over two rates, six replicates, 6, 14 and 21 days
Procedure: as §3, §4

[7] = tested on: Amaranthus retroflexus (AMARE); test: as above; conditions: mesotrione 60 or 120 g/ha, adjuvant 0.2% v/v, 200 l/ha; leaf area killed; mean over two rates, six replicates, 6, 14 and 21 days
Procedure: as §3, §4

[8] = tested on: Abutilon theophrasti (ABUTH); test: as above; conditions: mesotrione 60 or 120 g/ha, adjuvant 0.2% v/v, 200 l/ha; leaf area killed; mean over two rates, six replicates, 6, 14 and 21 days
Procedure: as §3, §4

[9] = tested on: Brachiaria platyphylla (BRAPP); test: as above; conditions: mesotrione 60 or 120 g/ha, adjuvant 0.2% v/v, 200 l/ha; leaf area killed; mean over two rates, six replicates, 6, 14 and 21 days
Procedure: as §3, §4

[10] = tested on: four weed species (CHEAL, ABUTH, BRAPP, DIGSA); test: Glasshouse adjuvant test with nicosulfuron (Example 2), mean of species
Procedure: (§5) Compound No. 2 (see Example 1 and Table 1 above) was tested in a glasshouse against four weed species in combination with the herbicide nicosulfuron. An agrochemical composition was prepared containing 0.2% v/v of the adjuvant in a track sprayer and was applied at a volume of 200 liters per hectare. Nicosulfuron was applied at either 30 or 60 grams of pesticide per hectare on weeds which had been grown to the 1.3 or 1.4 leaf stage. The weed species were Chenopodium album (CHEAL), Abutilon theophrasti (ABUTH), […] (BRAPP), and Digitaria sanguinalis (DIGSA).
(§6) Each spray test was replicated three times. The efficacy of the herbicide was assessed visually and expressed as a percentage of the leaf area killed. Samples were assessed at time periods of 7, 14 and 21 days. following application. The results shown in Table 2 below are mean averages over the two rates of nicosulfuron, three replicates and the three assessment timings.

Brassica perenni (BRAPP) = test: Glasshouse adjuvant test with nicosulfuron (Example 2); conditions: nicosulfuron 30 or 60 g/ha, adjuvant 0.2% v/v, 200 l/ha; leaf area killed; mean over two rates, three replicates, 7, 14 and 21 days
Procedure: as §5, §6

[11] = tested on: Digitaria sanguinalis (DIGSA); test: as above; conditions: nicosulfuron 30 or 60 g/ha, adjuvant 0.2% v/v, 200 l/ha; leaf area killed; mean over two rates, three replicates, 7, 14 and 21 days
Procedure: as §5, §6

[12] = tested on: Abutilon theophrasti (ABUTH); test: as above; conditions: nicosulfuron 30 or 60 g/ha, adjuvant 0.2% v/v, 200 l/ha; leaf area killed; mean over two rates, three replicates, 7, 14 and 21 days
Procedure: as §5, §6

[13] = tested on: Chenopodium album (CHEAL); test: as above; conditions: nicosulfuron 30 or 60 g/ha, adjuvant 0.2% v/v, 200 l/ha; leaf area killed; mean over two rates, three replicates, 7, 14 and 21 days
Procedure: as §5, §6

SMILES: CCCCCCCCCCCCc1ccc(C(=O)NCCOCCOCCOCCOCCOCCOCCOCCO)cc1 [Compound 2, 4-DODECYL-N-[2-(2-{2-[2-(2-{2-[2-(2-HYDROXY-ETHOXY)-ETHOXY]-ETHOXY}-ETHOXY)-ETHOXY]-ETHOXY}-ETHOXY)-ETHYL]-BENZAMIDE]
- Mean percentage kill, Mean across species [1]: 58.6%
- Mean percentage kill, Mean across species [2]: 72.1%
- Mean percentage kill XANST [3]: 68.8%
- Mean percentage kill ABUTH [4]: 90%
- Mean percentage kill SETVI (Setaria viridis (SETVI)): 41.7%
- Mean percentage kill CHEAL [5]: 34.1%
- Mean percentage kill DIGSA [6]: 83.4%
- Mean percentage kill AMARE [7]: 63.5%
- Mean percentage kill ABUTH [8]: 73.3%
- Mean percentage kill BRAPP [9]: 68.2%
- Mean percentage kill, Mean (g/ha) ([10]; nicosulfuron 30 or 60 g/ha, adjuvant 0.2% v/v, mean of the four weed species): 73.9%
- weed control compared to Turbocharge D ([10]; nicosulfuron formulation with adjuvant, in each case (all four weed species)): superior weed control
- Mean percentage kill BRAPP (Brassica perenni (BRAPP)): 86.4%
- Mean percentage kill DIGSA [11]: 83.1%
- Mean percentage kill ABUTH [12]: 47.1%
- Mean percentage kill CHEAL [13]: 80%
